Drawing on patent US9815846B2 (Merck Sharp & Dohme Corp., priority 2014, dated 2017), this text covers IC50 for six compounds.

SMILES strings stand for the structures.

The target of the experiment is human TrkA receptor (Homo sapiens (Human), UniProt P04629). The experiment is described as follows: DiscoverX PathHunter TrkA functional assay (NGF-stimulated U2OS cells). The format is cell-based. The following applies: U2OS cells expressing human TrkA-PK, Shc1-EA and p75NTR; compound 1 h, then NGF at ~80% of maximal response for 3 h; luminescence.
Chain of human TrkA receptor (P04629 33-796): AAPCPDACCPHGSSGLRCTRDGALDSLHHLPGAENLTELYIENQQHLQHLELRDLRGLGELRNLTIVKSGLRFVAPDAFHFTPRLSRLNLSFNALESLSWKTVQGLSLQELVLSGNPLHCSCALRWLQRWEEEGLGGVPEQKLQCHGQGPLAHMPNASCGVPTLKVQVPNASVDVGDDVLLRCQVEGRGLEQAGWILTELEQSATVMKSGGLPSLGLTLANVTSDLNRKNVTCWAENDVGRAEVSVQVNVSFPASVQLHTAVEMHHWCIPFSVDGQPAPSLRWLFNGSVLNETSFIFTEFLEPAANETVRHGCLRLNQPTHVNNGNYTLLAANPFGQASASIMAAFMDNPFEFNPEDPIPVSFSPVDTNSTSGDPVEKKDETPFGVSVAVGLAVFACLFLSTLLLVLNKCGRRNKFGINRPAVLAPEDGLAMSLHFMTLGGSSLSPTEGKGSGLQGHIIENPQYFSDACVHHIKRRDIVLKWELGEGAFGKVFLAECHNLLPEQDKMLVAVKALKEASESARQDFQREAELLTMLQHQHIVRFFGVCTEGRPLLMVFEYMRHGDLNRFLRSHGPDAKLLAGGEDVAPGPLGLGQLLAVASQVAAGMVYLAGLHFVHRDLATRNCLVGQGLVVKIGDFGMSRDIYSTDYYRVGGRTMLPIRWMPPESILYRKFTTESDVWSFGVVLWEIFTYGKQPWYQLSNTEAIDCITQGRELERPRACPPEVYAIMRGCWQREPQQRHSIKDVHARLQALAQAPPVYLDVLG
As usually defined, the IC50 is the midpoint of a concentration-inhibition curve. A lower IC50 goes with greater potency in that assay. `Cn1ccc(-c2cc(C(=O)Nc3cnc(CN4CCCOC4=O)nc3-c3ccccc3)c(F)cc2C(F)(F)F)n1` [Example 222, 2-fluoro-5-(1-methyl-1H-pyrazol-3-yl)-N-(2-((2-oxo-1,3-oxazinan-3-yl)methyl)-4-phenylpyrimidin-5-yl)-4-(trifluoromethyl)benzamide] returned a half-inhibitory concentration (IC50) of 0.22 nM. `Cn1ccc(-c2cc(C(=O)Nc3cnc(CN4CCOCC4=O)nc3-c3ccccc3)c(F)cc2C(F)(F)F)n1` [Example 223, 2-fluoro-5-(1-methyl-1H-pyrazol-3-yl)-N-(2-((3-oxomorpholino)methyl)-4-phenylpyrimidin-5-yl)-4-(trifluoromethyl)benzamide] yielded a 50% inhibitory concentration (IC50) of 1.6 nM.

`Cn1ccc(-c2cc(C(=O)Nc3cnc(Cn4ccnc4)nc3-c3ccccc3)ccc2C(F)(F)F)n1` [Example 224, N-(2-((1H-imidazol-1-yl)methyl)-4-phenylpyrimidin-5-yl)-3-(1-methyl-1H-pyrazol-3-yl)-4-(trifluoromethyl)benzamide]: the IC50 stood at 1.6 nM. Next, `Cn1ccc(-c2cc(C(=O)Nc3cnc(Cn4cccnc4=O)nc3-c3ccccc3)c(F)cc2C(F)(F)F)n1` [Example 225, 2-fluoro-5-(1-methyl-1H-pyrazol-3-yl)-N-(2-((2-oxopyrimidin-1(2H)-yl)methyl)-4-phenylpyrimidin-5-yl)-4-(trifluoromethyl)benzamide]: 1.2 nM; `Cn1ccc(-c2cc(C(=O)Nc3cnc(Cn4ccc(=O)[nH]c4=O)nc3-c3ccccc3)c(F)cc2C(F)(F)F)n1` [Example 226, N-(2-((2,4-dioxo-3,4-dihydropyrimidin-1(2H)-yl)methyl)-4-phenylpyrimidin-5-yl)-2-fluoro-5-(1-methyl-1H-pyrazol-3-yl)-4-(trifluoromethyl)benzamide]: 0.35 nM. Next, `Cn1ccc(-c2cc(C(=O)Nc3cnc(Cn4cn[nH]c4=O)nc3-c3ccccc3)c(F)cc2C(F)(F)F)n1` [Example 227, 2-fluoro-5-(1-methyl-1H-pyrazol-3-yl)-N-(2-((5-oxo-1,5-dihydro-4H-1,2,4-triazol-4-yl)methyl)-4-phenylpyrimidin-5-yl)-4-(trifluoromethyl)benzamide]: 0.24 nM.
